# Experimental data from patent US20020137162A1, “Antisense oligonucleotide inhibition of specific histone deacetylase isoforms” (priority 2000, published 2002).
# d = 2'-deoxy (DNA); m = 2'-O-methyl
# Tests used:
# [1] = system: human HDAC-3; assay: Antisense ODN screen, HDAC-3 RNA, T24 cells; type: cell-based; details: 100 nM, 24 hours, Northern blot
# Procedure: Twenty-one phosphorothioate ODNs containing sequences complementary to the 5′ or 3′ UTR of the human HDAC-3 gene (GenBank Accession No. AF039703) were screened as above. […] HDAC-3 MM oligonucleotide was created as a control; compared to the antisense oligonucleotide, it contains a 6-base mismatch.
# (§1) Briefly, human A549 and/or T24 human bladder carcinoma cells were seeded in 10 cm tissue culture dishes one day prior to oligonucleotide treatment. The cell lines were obtained from the American Type Culture Collection (ATCC) (Manassas, Va.) and were grown under the recommended culture conditions. Before the addition of the oligonucleotides, cells were washed with PBS (phosphate buffered saline). Next, lipofectin transfection reagent (GIBCO BRL Mississauga, Ontario, Calif.), at a concentration of 6.25 μg/ml, was added to serum free OPTIMEM medium (GIBCO BRL, Rockville, Md.), which was then added to the cells. The oligonucleotides to be screened were then added directly to the cells (i.e., one oligonucleotide per plate of cells). Mismatched oligonucleotides were used as controls. The same concentration of oligonucleotide (e.g., 50 nM) was used per plate of cells for each oligonucleotide tested.
# (§2) Cells were harvested, and total RNAs were analyzed by Northern blot analysis. Briefly, total RNA was extracted using RNeasy miniprep columns (QIAGEN). […]
# [2] = system: HDAC-3 protein; assay: Western blot of HDAC isotype protein expression in A549 cells, HDAC-3; type: cell-based, human; details: 50 nM, 48 hours
# Procedure: (§3) OSDN treatment conditions were as previously described.
# (§4) Cells were lysed in buffer containing 1% Triton X-100, 0.5% sodium deoxycholate, 5 mM EDTA, 25 mM Tris-HC1, pH 7.5, plus protease inhibitors. Total protein was quantified by the protein assay reagent from Bio-Rad (Hercules, Calif.). 100 ug of total protein was analyzed by SDS-PAGE. Next, total protein was transferred onto a PVDF membrane and probed with various HDAC-specific primary antibodies. Rabbit anti-HDAC-1 (H-51), anti-HDAC-2 (H-54) antibodies (Santa Cruz Biotechnologies, Santa Cruz, Calif.) were used at 1:500 dilution. Rabbit anti-HDAC-3 antibody (Sigma, St. Louis, Mo.) was used at a dilution of 1:1000. Anti-HDAC-4 antibody was prepared as previously described (Wang, S. H. et al., (1999) Mol. Cell. Biol. 19:7816-27), and was used at a dilution of 1:1000. Anti-HDAC-6 antibody was raised by immunizing rabbits with a GST fusion protein containing a fragment of HDAC-6 protein (amino acid #990 to #1216, GenBank Accession No. AAD29048). Rabbit antiserum was tested and found only to react specifically to the human HDAC-6 isoform. HDAC-6 antiserum was used at 1:500 dilution in Western blots to detect HDAC-6 in total cell lysates. Horse Radish Peroxidase conjugated secondary antibody was used at a dilution of 1:5000 to detect primary antibody binding. […]
# [3] = system: A549; assay: Cell growth inhibition, trypan blue cell count; type: cell-based, human; details: A549 cancer cells, 50 nM, 72 hours
# Procedure: (§5) In order to determine the effect of HDAC OSDNs on cell growth and cell death through apoptosis, A549 or T24 cells, MDAmb231 cells, and HMEC cells (ATCC, Manassas, Va.) were treated with HDAC OSDNs as previously described.
# (§6) Cells were harvested and cell numbers counted by trypan blue exclusion using a hemocytometer. Percentage of inhibition was calculated as (100—AS cell numbers/control cell numbers) %.
# [4] = system: HMEC; assay: Cell growth inhibition, trypan blue cell count; type: cell-based, human; details: HMEC normal cells, 50 nM, 72 hours
# Procedure: as §5, §6
# [5] = system: MDAmb231; assay: Cell growth inhibition, trypan blue cell count; type: cell-based, human; details: MDAmb231 cancer cells, 50 nM, 72 hours
# Procedure: as §5, §6
# [6] = system: T24; assay: Cell growth inhibition, trypan blue cell count; type: cell-based, human; details: T24 cancer cells, 50 nM, 72 hours
# Procedure: as §5, §6
# [7] = system: A549; assay: Apoptosis, Cell Death Detection ELISA; type: cell-based, human; details: fold over non-specific background, TSA at 100 ng/ml
# Procedure: as §5
# (§7) For the apoptosis study, cells were analyzed using the Cell Death Detection ELISA ^PLUSkit (Roche Diagnostic GmBH, Mannheim, Germany) according to the manufacturer's directions. Typically, 10,000 cells were plated in 96-well tissue culture dishes for 2 hours before harvest and lysis. Each sample was analyzed in duplicate. ELISA reading was done using a MR700 plate reader (DYNEX Technology, Ashford, Middlesex, England) at 410 nm. The reference was set at 490 nm.
# [8] = system: HMEC; assay: Apoptosis, Cell Death Detection ELISA; type: cell-based, human; details: fold over non-specific background, TSA at 100 ng/ml
# Procedure: as §5, §7
# [9] = system: MDAmb231; assay: Apoptosis, Cell Death Detection ELISA; type: cell-based, human; details: fold over non-specific background, TSA at 100 ng/ml
# Procedure: as §5, §7
# [10] = system: T24; assay: Apoptosis, Cell Death Detection ELISA; type: cell-based, human; details: fold over non-specific background, TSA at 100 ng/ml
# Procedure: as §5, §7
# [11] = system: human cancer cells; assay: Cell growth and apoptosis, summary for cancer cells; type: cell-based
# Procedure: as §5, §7, §6
# [12] = system: human HDAC-7; assay: Antisense ODN screen, HDAC-7 RNA, T24 cells; type: cell-based; details: 100 nM, 24 hours, Northern blot
# Procedure: Eighteen phosphorothioate ODNs containing sequences complementary to the 5′ or 3′ untranslated regions of the human HDAC-7 gene (GenBank Accession No. AF239243) were screened as above.
# as §1
# (§8) Cells were harvested, and total RNAs were analyzed by Northern blot analysis. Briefly, total RNA was extracted using RNeasy miniprep columns (QIAGEN). Ten to twenty gg of total RNA was run on a formaldehyde-containing 1% agarose gel with 0.5 M sodium phosphate (pH 7.0) as the buffer system. […]
# [13] = system: human HDAC-5; assay: Antisense ODN screen, HDAC-5 RNA, T24 cells; type: cell-based; details: 100 nM, 24 hours, Northern blot
# Procedure: Thirteen phosphorothioate ODNs containing sequences complementary to the 5′ or 3′ untranslated regions of the human HDAC-5 gene (GenBank Accession No. AF039691) were screened as above.
# as §1, §8
# [14] = system: human HDAC-1; assay: Antisense ODN screen, HDAC-1 RNA expression by Northern blot in T24 cells; type: cell-based; details: 100 nM, 24 hours
# Procedure: as §1
# Cells were harvested, and total RNAs were analyzed by Northern blot analysis. Briefly, total RNA was extracted using RNeasy miniprep columns (QIAGEN). Ten to twenty gg of total RNA was run on a formaldehyde-containing 1% agarose gel with 0.5 M sodium phosphate (pH 7.0) as the buffer system. RNAs were then transferred to nitrocellulose membranes and hybridized with the indicated radiolabeled DNA probes. Autoradiography was performed using conventional procedures.
# [15] = system: cyclin B1; assay: Western blot of cyclin B1 in A549 cells; type: cell-based, human; details: 48 hours
# Procedure: (§9) Human cancer A549 cells were treated with AS1, AS2 or MM oligo directed human HDAC1 for 48 hours. Total cell lysates were harvested and analyzed by Western blot using antibodies against human HDAC1, cyclin Bl, cyclin A and actin (all from Santa Cruz Biotechnology, Inc., Santa Cruz, Calif.).
# [16] = system: cyclin A; assay: Western blot of cyclin A in A549 cells; type: cell-based, human; details: 48 hours
# Procedure: as §9
# [17] = system: human HDAC-2; assay: Antisense ODN screen, HDAC-2 RNA, T24 cells; type: cell-based; details: 100 nM, 24 hours, Northern blot
# Procedure: Twenty-four phosphorothioate ODNs containing sequences complementary to the 5′ or 3′ UTR of the human HDAC-2 gene (GenBank Accession No. U31814) were screened as above. […] HDAC-2 MM was created as a control; compared to the antisense oligo, it contains a 7-base mismatch.
# as §1, §2
# [18] = system: HDAC-2 protein; assay: Western blot of HDAC isotype protein expression in A549 cells, HDAC-2; type: cell-based, human; details: 50 nM, 48 hours
# Procedure: as §3, §4
# [19] = system: A549 cells; assay: Growth in soft agar, colony count; type: cell-based, human; details: colonies counted after three weeks
# Procedure: 1.3 g granulated agar (DIDFCO) was added to 100 ml deionized water and boiled in a microwave to sterilize. The boiled agar was held at 55 C until further use. Iscove's Modified Dulbecco×s Medium (GIBCO/BRL), 100× Penicillin-Streptomycin-Glutamine (GIBCO/BRL) and fetal bovine serum (medicorp) were pre-warmed at 37 C. To 50 ml sterile tubes was added 9 ml Isove's medium, 2 ml fetal bovine serum and 0.2 ml 100× Pen-Strep-Gln. Then 9 ml 55 C 1.3% agar was added to each tube. The tube contents were mixed immediately, avoiding air bubbles, and 2.5 ml of the mixture was poured into each sterile 6 cm petri dish to form a polymerized bottom layer. Dishes with polymerized bottom layers were then put in a CO2 incubator at 37 C until further use. In 50 ml sterile tubes were prewarmed at 37 C for each 4 cell lines/samples, 20 ml Iscove's medium, 0.4 ml 100× Pen-Strep-Gln and 8 ml fetal bovine serum. Cells were trypsinized and counted by trypan blue staining and 20,000 cells were aliquotted into a sterile 15 ml tube. To the tube was then added DMEM with low glucose (GIBCO/BRL)+10% fetal bovine serum+Pen-Strep-Gln to a final volume of 1 ml. To the prewarmed 37 C mix in the 50 ml tube was quickly added 8 ml 55 C 1.3% agar, which was then mixed well. […] Plates were wrapped up in foil paper and incubated in a CO2 incubator at 37° C. for three weeks, at which time colonies in agar are counted.
# [20] = system: human HDAC-4; assay: Antisense ODN screen, HDAC-4 RNA, T24 cells; type: cell-based; details: 100 nM, 24 hours, Northern blot
# Procedure: Seventeen phosphorothioate ODNs containing sequences complementary to the 5′ or 3′ UTR of the human HDAC-4 gene (GenBank Accession No. AB006626) were screened as above. […] HDAC-4 MM1 and MM2 oligonucleotides were created as controls; compared to the antisense oligonucleotides, they each contain a 6-base mismatch.
# as §1, §2
# [21] = system: mammalian HDAC; details: Yoshida et al., J. Biol. Chem 265: 17174-17179 (1990); cited from earlier work
# [22] = system: murine erythroleukemia cells; details: Yoshida et al, Cancer Research 47: 3688-3691 (1987); cited from earlier work
compound,measurement,setting,value
5′-CGCTTTCCTTGTCATTGACA-3′ (chemistry not given here) [HDAC-3 AS],antisense activity to human HDAC-3,[1],antisense activity
same,HDAC-3 protein expression,[2],specifically inhibits
same,Growth Inhibition (AS vs. MM),[3],− (“−”: no inhibition)
same,Growth Inhibition (AS vs. MM),[4],− (“−”: no inhibition)
same,Growth Inhibition (AS vs. MM),[5],− (“−”: no inhibition)
same,Growth Inhibition (AS vs. MM),[6],− (“−”: no inhibition)
same,Apoptosis After 48 Hour Treatment,[7],− (“−”: <= 2x fold over non-specific background)
same,Apoptosis After 48 Hour Treatment,[8],− (“−”: <= 2x fold over non-specific background)
same,Apoptosis After 48 Hour Treatment,[9],− (“−”: <= 2x fold over non-specific background)
same,Apoptosis After 48 Hour Treatment,[10],− (“−”: <= 2x fold over non-specific background)
same,growth arrest and apoptosis of human cancer cells,[11]; Tables 3 and 4,no effect
"5′-CTTCAGCCAGGATGCCCACA-3′ (sugars from the 5' end m4 d12 m4, all phosphorothioate, methylation of C and T or U not given here) [HDAC-7 AS]",antisense activity to human HDAC-7,[12],antisense activity
"5′-CTTCGGTCTCACCTGCTTGG-3′ (sugars from the 5' end m4 d12 m4, all phosphorothioate, methylation of C and T or U not given here) [HDAC-5 AS]",antisense activity to human HDAC-5,[13],antisense activity
5′-GAAACGTGAGGGACTCAGCA-3′ (chemistry not given here) [HDAC-1 AS1],antisense activity to human HDAC-1 (HDAC-1 RNA expression),[14],antisense activity
same,Apoptosis After 48 Hour Treatment,[7],+ (“+”: 2-3X fold)
same,Apoptosis After 48 Hour Treatment,[8],− (“−”: <= 2x fold over non-specific background)
same,Apoptosis After 48 Hour Treatment,[10],− (“−”: <= 2x fold over non-specific background)
same,expression of cyclin B1,[15],repress expression
same,expression of cyclin A,[16],repress expression
5′-GCTGAGCTGTTCTGATTTGG-3′ (chemistry not given here) [HDAC-2 AS],antisense activity to human HDAC-2,[17],antisense activity
same,HDAC-2 protein expression,[18],specifically inhibits
same,Growth Inhibition (AS vs. MM),[5],− (“−”: no inhibition)
same,Apoptosis After 48 Hour Treatment,[7],− (“−”: <= 2x fold over non-specific background)
same,Apoptosis After 48 Hour Treatment,[8],− (“−”: <= 2x fold over non-specific background)
same,Apoptosis After 48 Hour Treatment,[9],− (“−”: <= 2x fold over non-specific background)
same,Apoptosis After 48 Hour Treatment,[10],− (“−”: <= 2x fold over non-specific background)
same,growth of A549 cells in soft agar,[19],do not
same,cancer cell growth inhibition,[11]; summary of Table 3,minimal effect
5′-GGAAGCCAGAGCTGGAGAGG-3′ (chemistry not given here) [HDAC-1 AS2],antisense activity to human HDAC-1 (HDAC-1 RNA expression),[14],antisense activity
same,expression of cyclin B1,[15],repress expression
same,expression of cyclin A,[16],repress expression
5′-TACAGTCCATGCAACCTCCA-3′ [HDAC-4 AS2],antisense activity to human HDAC-4,[20],antisense activity
"CC(/C=C/C(=O)NO)=C\[C@@H](C)C(=O)c1ccc(N(C)C)cc1 [TSA, (R)-Trichostatin A, reference compound]",Apoptosis After 48 Hour Treatment,[7],++ (“++”: 3-5X fold)
same,Apoptosis After 48 Hour Treatment,[8],+ (“+”: 2-3X fold)
same,Apoptosis After 48 Hour Treatment,[9],++ (“++”: 3-5X fold)
same,Apoptosis After 48 Hour Treatment,[10],++ (“++”: 3-5X fold)
same,inhibition of mammalian HDAC,[21],potent inhibitor
same,induction of differentiation in murine erythroleukemia cells,[22],potent inducer of differentiation
